SMILES strings stand for the structures.

Assay [1] has as its system CCl4-induced hepatotoxicity. The experiment in a line: Protection against CCl4-induced hepatotoxicity (mice). Format: in vivo, mice (four-week-old male, dd strain). To be noted: 250 mg/kg oral, average of 5 to 6 mice; for Liver damage index: CCl4 0.05 ml/kg oral after 6 h, 24 h after CCl4, scale 0 Normal, 2 Slightly recognized, 4 Clearly observable damage, 6 Heavy damage, CCl4 alone 5.2, control 0; for p-GPT: plasma, 24 h after CCl4 0.05 ml/kg oral, values over 1,000 regarded as 1,000, CCl4 alone >1,000, control 35. The source says:
Carbon tetrachloride (CCl4) administration induces centrilobular necrosis of the liver associated with loss of diphosphopyridine nucleotide, hepatic glycogen, coenzyme A and increase in neutral fat. Release of several enzymes from the hepatocytes, and increase of enzyme activities in the plasma are recognized as the result of the damage of the liver. A suitable means for evaluating the degree of damage induced by CCl4 or the degree of protection afforded by drugs is to study the plasma glutamic-pyruvic transaminase(p-GPT) activity.
Methods: The test compounds were dissolved or suspended in olive oil and administered orally at the dose of 250 mg/kg to the mice (Four-week-old male mice-dd strain). After 6 hours, CCl4 was administered orally (0.05 ml/kg as olive oil solution). Animals were killed 24 hours after CCl4 administration, and the liver was grossly observed. The plasma was obtained by centrifugation. Activities of p-GPT were determined by the method of Reitman and Frankels and expressed in Karmen units. Score for liver damage index was as follows:
Each figure indicates average of 5 to 6 mice. Values of p-GPT over 1,000 Karmen unit regarded as 1,000 for calculation of average for convenience.

The test system of assay [2] is alcohol metabolic function of liver. The experiment in a line: Effect on concentration of ethylalcohol in the blood (mice). Format: in vivo. The settings on record: 250 mg/kg oral pre-treatment, ethylalcohol 1,000 mg/kg oral after 6 h. The procedure:
The test compounds are dissolved or suspended in olive oil and administered orally at the dose of 250 mg/kg to the mice. After 6 hours, 1,000 mg/kg of ethylalcohol was given orally. Blood was taken in a capillary from caudal vein at the time indicated in the results. The plasma was obtained by centrifugation. The concentration of ethylalcohol in the plasma was measured by FID type gas liquid chromatography. Five mice were used for each group.

In assay [1], `CCOC(=O)C(C(=O)OCC)=C1SCCCS1` [Compound 9] gave a Liver damage index of 2.2 and a p-GPT of 366 Karmen units.

`CCOC(=O)C(C(=O)OC(C)CC)=C1SCCCCS1` (stereo not shown) [Compound 20]: the Liver damage index in assay [1] turned out to be 1.0. Also, in assay [1], the p-GPT is reported as 188 Karmen units. For the same molecule, the “Concentration of Ethylalcohol in Plasma” value amounted to 15 ± 2 ppm in assay [2] (0 min, control 27 ± 17); 710 ± 134 ppm in assay [2] (5 min, control 875 ± 203); 652 ± 143 ppm in assay [2] (15 min, control 810 ± 191); 404 ± 93 ppm in assay [2] (30 min, control 690 ± 214); 18 ± 6 ppm in assay [2] (60 min, control 167 ± 76).

With `CCCCOC(=O)C(C(=O)OCCCC)=C1SCCCCS1` [Compound 18], in assay [1], the Liver damage index worked out at 0.5 and the p-GPT turned out to be 41 Karmen units.

With `CCCCCOC(=O)C(C(=O)OCCCCC)=C1SCS1` [Compound 6], in assay [1], the Liver damage index was determined as 1.2 and the p-GPT is reported as 167 Karmen units.

In assay [1], `CCCCOC(=O)C(C(=O)OCCCC)=C1SCS1` [Compound 5] returned a Liver damage index of 1.2 and a p-GPT of 158 Karmen units.

In assay [1], `CCOC(=O)C(C(=O)OC(C)(C)C)=C1SCCCS1` [Compound 13] yielded a Liver damage index of 1.4 and a p-GPT of 125 Karmen units.

In assay [1], `CCCCCOC(=O)C(C(=O)OCCCCC)=C1SCCCCS1` [Compound 19] showed a Liver damage index of 0.7 and a p-GPT of 157 Karmen units.

With `CCCOC(=O)C(C(=O)OCCC)=C1SCS1` [Compound 3, Di-n-propyl 1,3-dithietan-2-ylidene malonate], in assay [1], the Liver damage index stood at 0.2 and the p-GPT came to 22 Karmen units.

In assay [1], `NC(=O)CCCCC1CCSS1` (stereo not shown) [Thioctic acid amide, reference compound] returned a Liver damage index of 4.8 and a p-GPT of 763 Karmen units.

Turning to `CCCCOC(=O)C(C(=O)OCCCC)=C1SCCCS1` [Compound 12], in assay [1], the Liver damage index is given as 1.8 and the p-GPT was determined as 284 Karmen units.

As for `COC(=O)C(C(=O)OC)=C1SCCCCS1` [Compound 14], in assay [1], the Liver damage index is 3.5 and the p-GPT is recorded as 762 Karmen units.

In assay [1], `CCOC(=O)C(C(=O)OC(C)C)=C1SCS1` [Compound 7] yielded a Liver damage index of 0.6 and a p-GPT of 54 Karmen units.

In assay [1], `CCOC(=O)C(C(=O)OCC)=C1SCCCCS1` [Compound 15] registered a Liver damage index of 3.2 and a p-GPT of 533 Karmen units.

For the molecule `COC(=O)C(C(=O)OC)=C1SCS1` [Compound 1], in assay [1], the Liver damage index amounted to 1.5 and the p-GPT was determined as 341 Karmen units.

In assay [1], `COC(=O)C(C(=O)OC)=C1SCCCS1` [Compound 8] displayed a Liver damage index of 2.8 and a p-GPT of 437 Karmen units.

Consider `CCCOC(=O)C(C(=O)OCCC)=C1SCCCCS1` [Compound 16], for which, in assay [1], the Liver damage index is reported as 3.0 and the p-GPT turned out to be 710 Karmen units.

The values above are taken from patent publication US4022907A, “Pharmaceutical compositions containing 1,3-dithiacycloalkylidene malonates” (Nihon Nohyaku Co. Ltd., priority 1975, dated 1977).
